Data as given in patent US9193733B2, “Piperidinylcyclobutyl substituted pyrrolopyridine and pyrrolopyrimidine derivatives as JAK inhibitors” (Incyte Corporation, priority 2012, dated 2015).

Experiments:
Type in all cases: biochemical
[1] = biological target: T1, human JAK1 (a.a. 837-1142) catalytic domain (Homo sapiens, UniProt P23458); assay: In vitro JAK kinase assay (HTRF, phosphorylation of a biotinylated peptide), JAK1; settings: 1 mM ATP
T1 construct: human JAK1 (a.a. 837-1142) and JAK2 (a.a. 828-1132); His tag (N); made in house; host or cells: insect cells (baculovirus)
T1 sequence (P23458 849-1154): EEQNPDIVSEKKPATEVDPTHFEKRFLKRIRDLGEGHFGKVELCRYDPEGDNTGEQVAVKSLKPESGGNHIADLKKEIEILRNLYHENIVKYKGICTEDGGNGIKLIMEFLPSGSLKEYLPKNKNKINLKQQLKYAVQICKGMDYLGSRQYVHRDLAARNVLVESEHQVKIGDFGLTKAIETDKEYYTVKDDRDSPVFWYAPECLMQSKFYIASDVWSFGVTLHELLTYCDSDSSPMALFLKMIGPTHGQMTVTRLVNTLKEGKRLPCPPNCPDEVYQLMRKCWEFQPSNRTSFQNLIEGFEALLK
Protocol: (§1) Compounds herein were tested for inhibitory activity of JAK targets according to the following in vitro assay described in Park et al., Analytical Biochemistry 1999, 269, 94-104. The catalytic domains of human JAK1 (a.a. 837-1142) and JAK2 (a.a. 828-1132) with an N-terminal His tag were expressed using baculovirus in insect cells and purified. The catalytic activity of JAK1 and JAK2 was assayed by measuring the phosphorylation of a biotinylated peptide. The phosphorylated peptide was detected by homogenous time resolved fluorescence (HTRF). IC50s of compounds were measured for each kinase in the 40 microL reactions that contain the enzyme, ATP and 500 nM peptide in 50 mM Tris (pH 7.8) buffer with 100 mM NaCl, 5 mM DTT, and 0.1 mg/mL (0.01%) BSA. For the 1 mM IC50 measurements, ATP concentration in the reactions was 1 mM. Reactions were carried out at room temperature for 1 hour and then stopped with 20 μL 45 mM EDTA, 300 nM SA-APC, 6 nM Eu-Py20 in assay buffer (Perkin Elmer, Boston, Mass.). Binding to the Europium labeled antibody took place for 40 minutes and HTRF signal was measured on a Fusion plate reader (Perkin Elmer, Boston, Mass.). See Table A for data related to compounds of the Examples (at 1 mM). Data is indicated as ranges: <20 nM (+), 20 to <150 nM (++), 150 to 500 nM (+++).

[2] = test system: human JAK1 (a.a. 837-1142) catalytic domain; assay: as above; settings: ratio of JAK2 IC50 to JAK1 IC50, 1 mM ATP
Protocol: as §1

[3] = biological target: T2, human JAK2 (a.a. 828-1132) catalytic domain (Homo sapiens, UniProt O60674); assay: In vitro JAK kinase assay (HTRF, phosphorylation of a biotinylated peptide), JAK2; settings: 1 mM ATP
T2 construct: human JAK1 (a.a. 837-1142) and JAK2 (a.a. 828-1132); His tag (N); made in house; host or cells: insect cells (baculovirus)
T2 sequence (O60674 828-1132): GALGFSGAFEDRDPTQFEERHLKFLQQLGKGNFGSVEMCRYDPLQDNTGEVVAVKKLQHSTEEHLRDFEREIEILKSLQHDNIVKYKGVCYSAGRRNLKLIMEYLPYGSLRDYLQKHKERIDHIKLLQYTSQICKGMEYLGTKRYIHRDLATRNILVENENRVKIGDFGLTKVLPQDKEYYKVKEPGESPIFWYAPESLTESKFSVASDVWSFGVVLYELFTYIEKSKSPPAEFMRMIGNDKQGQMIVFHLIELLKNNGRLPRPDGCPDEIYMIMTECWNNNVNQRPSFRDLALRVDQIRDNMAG
Protocol: as §1

IC50 [1] [nM] | JAK2/JAK1 [2] | IC50 [3] [nM] | SMILES
< 20 | >10 | 20 to 150 | N#CC[C@]1(n2cc(-c3ncnc4[nH]ccc34)cn2)C[C@H](N2CCC(Nc3cc(CN[C@H]4C[C@H](O)C4)nc(C(F)(F)F)n3)CC2)C1 [Example 30, {trans-3-(4-{[6-{[(trans-3-hydroxycyclobutyl)amino]methyl}-2-(trifluoromethyl)pyrimidin-4-yl]amino}piperidin-1-yl)-1-[4-(7H-pyrrolo[2,3-d]pyrimidin-4-yl)-1H-pyrazol-1-yl]cyclobutyl}acetonitrile]
< 20 | >10 | 20 to 150 | N#CC[C@]1(n2cc(-c3ncnc4[nH]ccc34)cn2)C[C@H](N2CCC(Nc3cc(CO)cc(C(F)(F)F)n3)CC2)C1 [Example 31, {trans-3-(4-{[4-(hydroxymethyl)-6-(trifluoromethyl)pyridin-2-yl]amino}piperidin-1-yl)-1-[4-(7H-pyrrolo[2,3-d]pyrimidin-4-yl)-1H-pyrazol-1-yl]cyclobutyl}acetonitrile]
< 20 | >10 | 20 to 150 | CCNCc1cc(NC2CCN([C@H]3C[C@](CC#N)(n4cc(-c5ncnc6[nH]ccc56)cn4)C3)CC2)nc(C(F)(F)F)c1 [Example 32, {trans-3-(4-{[4-[(ethylamino)methyl]-6-(trifluoromethyl)pyridin-2-yl]amino}piperidin-1-yl)-1-[4-(7H-pyrrolo[2,3-d]pyrimidin-4-yl)-1H-pyrazol-1-yl]cyclobutyl}acetonitrile]
< 20 | >10 | 20 to 150 | N#CC[C@]1(n2cc(-c3ncnc4[nH]ccc34)cn2)C[C@H](N2CCC(Nc3cc(CNCCO)cc(C(F)(F)F)n3)CC2)C1 [Example 33, {trans-3-(4-{[4-{[(2-hydroxyethyl)amino]methyl}-6-(trifluoromethyl)pyridin-2-yl]amino}piperidin-1-yl)-1-[4-(7H-pyrrolo[2,3-d]pyrimidin-4-yl)-1H-pyrazol-1-yl]cyclobutyl}acetonitrile]
< 20 | >10 | 20 to 150 | N#CC[C@]1(n2cc(-c3ncnc4[nH]ccc34)cn2)C[C@H](N2CCC(Nc3cc(CN[C@H]4C[C@H](O)C4)cc(C(F)(F)F)n3)CC2)C1 [Example 34, {trans-3-(4-{[4-{[(trans-3-hydroxycyclobutyl)amino]methyl}-6-(trifluoromethyl)pyridin-2-yl]amino}piperidin-1-yl)-1-[4-(7H-pyrrolo[2,3-d]pyrimidin-4-yl)-1H-pyrazol-1-yl]cyclobutyl}acetonitrile]
< 20 | >10 | 20 to 150 | CC1(C)CN(Cc2cc(NC3CCN([C@H]4C[C@](CC#N)(n5cc(-c6ncnc7[nH]ccc67)cn5)C4)CC3)nc(C(F)(F)F)c2)C1 [Example 35, {trans-3-(4-{[4-[(3,3-dimethylazetidin-1-yl)methyl]-6-(trifluoromethyl)pyridin-2-yl]amino}piperidin-1-yl)-1-[4-(7H-pyrrolo[2,3-d]pyrimidin-4-yl)-1H-pyrazol-1-yl]cyclobutyl}acetonitrile]
< 20 | >10 | 150 to 500 | N#CC[C@]1(n2cc(-c3ncnc4[nH]ccc34)cn2)C[C@H](N2CCC(Nc3cc(CN4CCC(F)(F)C4)cc(C(F)(F)F)n3)CC2)C1 [Example 36, {trans-3-(4-{[4-[(3,3-difluoropyrrolidin-1-yl)methyl]-6-(trifluoromethyl)pyridin-2-yl]amino}piperidin-1-yl)-1-[4-(7H-pyrrolo[2,3-d]pyrimidin-4-yl)-1H-pyrazol-1-yl]cyclobutyl}acetonitrile]
< 20 | >10 | 150 to 500 | CN(Cc1cc(NC2CCN([C@H]3C[C@](CC#N)(n4cc(-c5ncnc6[nH]ccc56)cn4)C3)CC2)nc(C(F)(F)F)c1)C1CC1 [Example 37, {trans-3-(4-{[4-{[cyclopropyl(methyl)amino]methyl}-6-(trifluoromethyl)pyridin-2-yl]amino}piperidin-1-yl)-1-[4-(7H-pyrrolo[2,3-d]pyrimidin-4-yl)-1H-pyrazol-1-yl]cyclobutyl}acetonitrile]
< 20 | >10 | 20 to 150 | N#CC[C@]1(n2cc(-c3ncnc4[nH]ccc34)cn2)C[C@H](N2CCC(Nc3cc(CN4CCC4)cc(C(F)(F)F)n3)CC2)C1 [Example 39, {trans-3-(4-{[4-(azetidin-1-ylmethyl)-6-(trifluoromethyl)pyridin-2-yl]amino}piperidin-1-yl)-1-[4-(7H-pyrrolo[2,3-d]pyrimidin-4-yl)-1H-pyrazol-1-yl]cyclobutyl}acetonitrile]
< 20 | >10 | 20 to 150 | N#CC[C@]1(n2cc(-c3ncnc4[nH]ccc34)cn2)C[C@H](N2CCC(Nc3cc(CN4CCOCC4)cc(C(F)(F)F)n3)CC2)C1 [Example 40, {trans-3-(4-{[4-(morpholin-4-ylmethyl)-6-(trifluoromethyl)pyridin-2-yl]amino}piperidin-1-yl)-1-[4-(7H-pyrrolo[2,3-d]pyrimidin-4-yl)-1H-pyrazol-1-yl]cyclobutyl}acetonitrile]
< 20 | >10 | 20 to 150 | N#CC[C@]1(n2cc(-c3ncnc4[nH]ccc34)cn2)C[C@H](N2CCC(Nc3cc(CN4CC(O)C4)cc(C(F)(F)F)n3)CC2)C1 [Example 41, {trans-3-(4-{[4-[(3-hydroxyazetidin-1-yl)methyl]-6-(trifluoromethyl)pyridin-2-yl]amino}piperidin-1-yl)-1-[4-(7H-pyrrolo[2,3-d]pyrimidin-4-yl)-1H-pyrazol-1-yl]cyclobutyl}acetonitrile]
< 20 | >10 | 20 to 150 | CN(CCO)Cc1cc(NC2CCN([C@H]3C[C@](CC#N)(n4cc(-c5ncnc6[nH]ccc56)cn4)C3)CC2)nc(C(F)(F)F)c1 [Example 42, {trans-3-(4-{[4-{[(2-hydroxyethyl)(methyl)amino]methyl}-6-(trifluoromethyl)pyridin-2-yl]amino}piperidin-1-yl)-1-[4-(7H-pyrrolo[2,3-d]pyrimidin-4-yl)-1H-pyrazol-1-yl]cyclobutyl}acetonitrile]
< 20 | >10 | 20 to 150 | N#CC[C@]1(n2cc(-c3ncnc4[nH]ccc34)cn2)C[C@H](N2CCC(Nc3cc(CN4CC[C@H](O)C4)cc(C(F)(F)F)n3)CC2)C1 [Example 43, {trans-3-(4-{[4-{[(3S)-3-hydroxypyrrolidin-1-yl]methyl}-6-(trifluoromethyl)pyridin-2-yl]amino}piperidin-1-yl)-1-[4-(7H-pyrrolo[2,3-d]pyrimidin-4-yl)-1H-pyrazol-1-yl]cyclobutyl}acetonitrile]
< 20 | >10 | 20 to 150 | N#CC[C@]1(n2cc(-c3ncnc4[nH]ccc34)cn2)C[C@H](N2CCC(Nc3cc(CN4CC[C@@H](O)C4)cc(C(F)(F)F)n3)CC2)C1 [Example 44, {trans-3-(4-{[4-{[(3R)-3-hydroxypyrrolidin-1-yl]methyl}-6-(trifluoromethyl)pyridin-2-yl]amino}piperidin-1-yl)-1-[4-(7H-pyrrolo[2,3-d]pyrimidin-4-yl)-1H-pyrazol-1-yl]cyclobutyl}acetonitrile]
< 20 | >10 | 20 to 150 | COCc1cc(NC2CCN([C@H]3C[C@](CC#N)(n4cc(-c5ncnc6[nH]ccc56)cn4)C3)CC2)nc(C(F)(F)F)c1 [Example 45, {trans-3-(4-{[4-(methoxymethyl)-6-(trifluoromethyl)pyridin-2-yl]amino}piperidin-1-yl)-1-[4-(7H-pyrrolo[2,3-d]pyrimidin-4-yl)-1H-pyrazol-1-yl]cyclobutyl}acetonitrile]
< 20 | >10 | 20 to 150 | N#CC[C@]1(n2cc(-c3ncnc4[nH]ccc34)cn2)C[C@H](N2CCC(Nc3cc(CN4CC5(COC5)C4)cc(C(F)(F)F)n3)CC2)C1 [Example 46, {trans-3-(4-{[4-(2-oxa-6-azaspiro[3.3]hept-6-ylmethyl)-6-(trifluoromethyl)pyridin-2-yl]amino}piperidin-1-yl)-1-[4-(7H-pyrrolo[2,3-d]pyrimidin-4-yl)-1H-pyrazol-1-yl]cyclobutyl}acetonitrile]
< 20 | >10 | 150 to 500 | CN(c1cc(CO)cc(C(F)(F)F)n1)C1CCN([C@H]2C[C@](CC#N)(n3cc(-c4ncnc5[nH]ccc45)cn3)C2)CC1 [Example 47, {trans-3-{4-[[4-(hydroxymethyl)-6-(trifluoromethyl)pyridin-2-yl](methyl)amino]piperidin-1-yl}-1-[4-(7H-pyrrolo[2,3-d]pyrimidin-4-yl)-1H-pyrazol-1-yl]cyclobutyl}acetonitrile]
